Patent US11440914B2, “Tricyclic amine compounds as CDK2 inhibitors” (Incyte Corporation, priority 2019, dated 2022)
pIC50: −log10 of the molar value.

Biological target: CDK2/Cyclin E1 (Homo sapiens (Human), UniProt P24941)
Assay: CDK2/Cyclin E1 HTRF enzyme activity assay
Assay type: biochemical
Conditions: 1 mM ATP
Method: CDK2/Cyclin E1 enzyme activity assays utilize full-length human CDK2 co-expressed as N-terminal GST-tagged protein with FLAG-Cyclin E1 in a baculovirus expression system (Carna Product Number 04-165). Assays are conducted in white 384-well polystyrene plates in a final reaction volume of 8 μL. CDK2/Cyclin E1 (0.25 nM) is incubated with compounds (40 nL serially diluted in DMSO) in the presence of ATP (50 μM or 1 mM) and 50 nM ULight™-labeled eIF4E-binding protein 1 (THR37/46) peptide (PerkinElmer) in assay buffer (containing 50 mM HEPES pH 7.5, 1 mM EGTA, 10 mM MgCl2, 2 mM DTT, 0.05 mg/ml BSA, and 0.01% Tween 20) for 60 minutes at room temperature. The reactions are stopped by the addition of EDTA and Europium-labeled anti-phospho-4E-BP1 antibody (PerkinElmer), for a final concentration of 15 mM and 1.5 nM, respectively. HTRF signals are read after 1 hour at room temperature on a PHERAstar FS plate reader (BMG Labtech). Data is analyzed with IDBS XLFit and GraphPad Prism 5.0 software using a three or four parameter dose response curve to determine IC50 for each compound.

In the case of `CS(=O)(=O)N1CCC(Nc2ncc3c(n2)-c2c(nc(Br)n2C2CC2)CC3)CC1` [Example 21, 2-Bromo-1-cyclopropyl-N-(1-(methylsulfonyl)piperidin-4-yl)-4,5-dihydro-1H-imidazo[4,5-h]quinazolin-8-amine], the pIC50 was ≥ 7.30.
With `CS(=O)(=O)N1CCC(Nc2ncc3c(n2)-c2c(nn(C4CC4)c2C2CC2)CC3)CC1` [Example 16, 8,9-Dicyclopropyl-N-(1-(methylsulfonyl)piperidin-4-yl)-6,8-dihydro-5H-pyrazolo[3,4-h]quinazolin-2-amine] the pIC50 was ≥ 7.30.
`Cc1nc2c(n1C)-c1nc(NC3CCN(S(=O)(=O)c4cn[nH]c4)CC3)ncc1CC2` [Example 4, N-(1-((1H-Pyrazol-4-yl)sulfonyl)piperidin-4-yl)-1,2-dimethyl-4,5-dihydro-1H-imidazo[4,5-h]quinazolin-8-amine] was tested, and the pIC50 was ≥ 7.30.
In the case of `Cc1nc2c(n1C1CC1)-c1nc(N[C@H]3CCN(S(=O)(=O)c4cnn(C)c4)C[C@H]3C)ncc1CC2` [Example 32, 1-Cyclopropyl-2-methyl-N-((3R,4S)-3-methyl-1-((1-methyl-1H-pyrazol-4-yl)sulfonyl)piperidin-4-yl)-4,5-dihydro-1H-imidazo[4,5-h]quinazolin-8-amine], the pIC50 was ≥ 7.30.
In the case of `CC(C)c1nc2c(n1C)-c1nc(NC3CCN(S(C)(=O)=O)CC3)ncc1CC2` [Example 18, 2-Isopropyl-1-methyl-N-(1-(methylsulfonyl)piperidin-4-yl)-4,5-dihydro-1H-imidazo[4,5-h]quinazolin-8-amine], the pIC50 was ≥ 7.30.
With `Cc1nc2c(n1C1CC1)-c1nc(N[C@H]3CCN(S(=O)(=O)c4cn(C)cn4)C[C@H]3C)ncc1CC2` [Example 31, 1-Cyclopropyl-2-methyl-N-((3R,4S)-3-methyl-1-((1-methyl-1H-imidazol-4-yl)sulfonyl)piperidin-4-yl)-4,5-dihydro-1H-imidazo[4,5-h]quinazolin-8-amine] the pIC50 was ≥ 7.30.
In the case of `Cc1nc2c(n1C)-c1nc(N[C@H]3CCN(S(=O)(=O)c4cn(C)cn4)C[C@H]3C)ncc1CC2` [Example 28, 1,2-Dimethyl-N-((3R,4S)-3-methyl-1-((1-methyl-1H-imidazol-4-yl)sulfonyl)piperidin-4-yl)-4,5-dihydro-1H-imidazo[4,5-h]quinazolin-8-amine], the pIC50 was ≥ 7.30.
`CS(=O)(=O)N1CCC(Nc2ncc3c(n2)-c2c(nn(C4CCOC4)c2C2CC2)CC3)CC1` (stereo not shown) [Example 14, 9-Cyclopropyl-N-(1-(methylsulfonyl)piperidin-4-yl)-8-(tetrahydrofuran-3-yl)-6,8-dihydro-5H-pyrazolo[3,4-h]quinazolin-2-amine] was tested, and the pIC50 was ≥ 7.30.
`Cc1nc2c(n1Cc1ccccc1)-c1nc(NC3CCN(S(C)(=O)=O)CC3)ncc1CC2` [Example 8, 1-Benzyl-2-methyl-N-(1-(methylsulfonyl)piperidin-4-yl)-4,5-dihydro-1H-imidazo[4,5-h]quinazolin-8-amine] was tested, and the pIC50 was ≥ 7.30.
In the case of `CC(C)c1c2c(nn1C)CCc1cnc(NC3CCN(S(C)(=O)=O)CC3)nc1-2` [Example 13, 9-Isopropyl-8-methyl-N-(1-(methylsulfonyl)piperidin-4-yl)-6,8-dihydro-5H-pyrazolo[3,4-h]quinazolin-2-amine], the pIC50 was ≥ 7.30.
`Cc1nc2c([nH]1)-c1nc(NC3CCN(S(C)(=O)=O)CC3)ncc1CC2` [Example 7, 2-Methyl-N-(1-(methylsulfonyl)piperidin-4-yl)-4,5-dihydro-1H-imidazo[4,5-h]quinazolin-8-amine] showed a pIC50 of 6.70 to 7.30.
With `CS(=O)(=O)N1CCC(Nc2ncc3c(n2)-c2c(nn(CCO)c2C2CC2)CC3)CC1` [Example 15, 2-(9-Cyclopropyl-2-((1-(methylsulfonyl)piperidin-4-yl)amino)-5,6-dihydro-8H-pyrazolo[3,4-h]quinazolin-8-yl)ethan-1-ol] the pIC50 was ≥ 7.30.
`Cc1nc(S(=O)(=O)N2CCC(Nc3ncc4c(n3)-c3c(nc(C)n3C)CC4)CC2)cn1C` [Example 6, N-(1-((1,2-Dimethyl-1H-imidazol-4-yl)sulfonyl)piperidin-4-yl)-1,2-dimethyl-4,5-dihydro-1H-imidazo[4,5-h]quinazolin-8-amine] was tested, and the pIC50 was ≥ 7.30.
`Cc1nc2c(n1C)-c1nc(NC3CCN(S(=O)(=O)c4cnn(C)c4)CC3)ncc1CC2` [Example 3, 1,2-Dimethyl-N-(1-((1-methyl-1H-pyrazol-4-yl)sulfonyl)piperidin-4-yl)-4,5-dihydro-1H-imidazo[4,5-h]quinazolin-8-amine] was tested, and the pIC50 was ≥ 7.30.
In the case of `Cc1nn(C)cc1-c1nc2c(n1C1CC1)-c1nc(NC3CCN(S(C)(=O)=O)CC3)ncc1CC2` [Example 24, 1-Cyclopropyl-2-(1,3-dimethyl-1H-pyrazol-4-yl)-N-(1-(methylsulfonyl)piperidin-4-yl)-4,5-dihydro-1H-imidazo[4,5-h]quinazolin-8-amine], the pIC50 was ≥ 7.30.
`Cc1nc2c(n1C1CC1)-c1nc(NC3CCN(S(C)(=O)=O)CC3)ncc1CC2` [Example 19, 1-Cyclopropyl-2-methyl-N-(1-(methylsulfonyl)piperidin-4-yl)-4,5-dihydro-1H-imidazo[4,5-h]quinazolin-8-amine] was tested, and the pIC50 was ≥ 7.30.
In the case of `Cc1nc2c(n1C)-c1nc(NC3CCN(S(=O)(=O)c4cccc(C#N)c4)CC3)ncc1CC2` [Example 5, 3-((4-((1,2-Dimethyl-4,5-dihydro-1H-imidazo[4,5-h]quinazolin-8-yl)amino)piperidin-1-yl)sulfonyl)benzonitrile], the pIC50 was ≥ 7.30.
In the case of `CS(=O)(=O)N1CCC(Nc2ncc3c(n2)-c2c(ncn2C2CC2)CO3)CC1` [Example 26, 1-Cyclopropyl-N-(1-(methylsulfonyl)piperidin-4-yl)-1,4-dihydroimidazo[4′,5′:4,5]pyrano[3,2-d]pyrimidin-8-amine], the pIC50 was ≥ 7.30.
In the case of `CS(=O)(=O)N1CCC(Nc2ncc3c(n2)-c2c(nc(-c4ccccc4)n2C2CC2)CC3)CC1` [Example 22, 1-Cyclopropyl-N-(1-(methylsulfonyl)piperidin-4-yl)-2-phenyl-4,5-dihydro-1H-imidazo[4,5-h]quinazolin-8-amine], the pIC50 was ≥ 7.30.
In the case of `Cc1nc2c(n1C(C)C)-c1nc(NC3CCN(S(C)(=O)=O)CC3)ncc1CC2` [Example 27, 1-Isopropyl-2-methyl-N-(1-(methylsulfonyl)piperidin-4-yl)-4,5-dihydro-1H-imidazo[4,5-h]quinazolin-8-amine], the pIC50 was ≥ 7.30.
With `Cc1nc2c(n1C)-c1nc(NC3CCN(S(C)(=O)=O)CC3)ncc1CC2` [Example 17, 1,2-Dimethyl-N-(1-(methylsulfonyl)piperidin-4-yl)-4,5-dihydro-1H-imidazo[4,5-h]quinazolin-8-amine] the pIC50 was ≥ 7.30.
`Cc1nc2c(n1C1CC1)-c1nc(NC3CCN(S(C)(=O)=O)CC3)ncc1CC2(C)C` [Example 25, 1-Cyclopropyl-2,4,4-trimethyl-N-(1-(methylsulfonyl)piperidin-4-yl)-4,5-dihydro-1H-imidazo[4,5-h]quinazolin-8-amine] was tested, and the pIC50 was ≥ 7.30.
In the case of `Cn1cc2c(n1)CCc1cnc(NC3CCN(S(C)(=O)=O)CC3)nc1-2` [Example 9, 8-Methyl-N-(1-(methylsulfonyl)piperidin-4-yl)-6,8-dihydro-5H-pyrazolo[3,4-h]quinazolin-2-amine], the pIC50 was 6.70 to 7.30.
`Cn1nc2c(c1C1CC1)-c1nc(NC3CCN(S(C)(=O)=O)CC3)ncc1CC2` [Example 12, 9-Cyclopropyl-8-methyl-N-(1-(methylsulfonyl)piperidin-4-yl)-6,8-dihydro-5H-pyrazolo[3,4-h]quinazolin-2-amine] was tested, and the pIC50 was ≥ 7.30.
With `Cc1nc2c(n1C)-c1nc(N[C@H]3CCN(S(=O)(=O)c4cccc(N5CCN(C)CC5)n4)C[C@H]3C)ncc1CC2` [Example 29, 1,2-Dimethyl-N-((3R,4S)-3-methyl-1-((6-(4-methylpiperazin-1-yl)pyridin-2-yl)sulfonyl)piperidin-4-yl)-4,5-dihydro-1H-imidazo[4,5-h]quinazolin-8-amine] the pIC50 was ≥ 7.30.
`Cn1cc2c(n1)COc1cnc(NC3CCN(S(C)(=O)=O)CC3)nc1-2` [Example 10, 8-Methyl-N-(1-(methylsulfonyl)piperidin-4-yl)-6,8-dihydropyrazolo[4′,3′:4,5]pyrano[3,2-d]pyrimidin-2-amine] was tested, and the pIC50 was 6.30 to 6.70.
For `Cc1nc2c(n1C)-c1nc(N[C@H]3CCN(S(=O)(=O)c4ccc(N5CC[C@@H](O)C5)nc4)C[C@H]3C)ncc1CC2` [Example 30, (R)-1-(5-(((3R,4S)-4-((1,2-Dimethyl-4,5-dihydro-1H-imidazo[4,5-h]quinazolin-8-yl)amino)-3-methylpiperidin-1-yl)sulfonyl)pyridin-2-yl)pyrrolidin-3-ol], the pIC50 was ≥ 7.30.
`CS(=O)(=O)N1CCC(Nc2ncc3c(n2)-c2c(nc(-c4ccccc4F)n2C2CC2)CC3)CC1` [Example 23, 1-Cyclopropyl-2-(2-fluorophenyl)-N-(1-(methylsulfonyl)piperidin-4-yl)-4,5-dihydro-1H-imidazo[4,5-h]quinazolin-8-amine] was tested, and the pIC50 was ≥ 7.30.
In the case of `Cc1c2c(nn1-c1c(F)cccc1F)CCc1cnc(NC3CCN(S(C)(=O)=O)CC3)nc1-2` [Example 11, 8-(2,6-Difluorophenyl)-9-methyl-N-(1-(methylsulfonyl)piperidin-4-yl)-6,8-dihydro-5H-pyrazolo[3,4-h]quinazolin-2-amine], the pIC50 was ≥ 7.30.
`CS(=O)(=O)N1CCC(Nc2ncc3c(n2)-c2c(ncn2C2CC2)CC3)CC1` [Example 20, 1-Cyclopropyl-N-(1-(methylsulfonyl)piperidin-4-yl)-4,5-dihydro-1H-imidazo[4,5-h]quinazolin-8-amine] was tested, and the pIC50 was ≥ 7.30.
With `CCS(=O)(=O)N1CCC(Nc2ncc3c(n2)-c2c(nc(C)n2C)CC3)CC1` [Example 1, N-(1-(Ethylsulfonyl)piperidin-4-yl)-1,2-dimethyl-4,5-dihydro-1H-imidazo[4,5-h]quinazolin-8-amine] the pIC50 was ≥ 7.30.
